# ChEMBL document CHEMBL1123383, “Multisubstrate inhibitors of dopamine beta-hydroxylase. 1. Some 1-phenyl and 1-phenyl-bridged derivatives of imidazole-2-thione” (J Med Chem, 1986)
# Assays:
# [1] = target: T1, Dopamine beta-hydroxylase (Bos taurus, UniProt P15101); experiment: Inhibition of Dopamine beta hydroxylase.
# T1 sequence (P15101 whole entry): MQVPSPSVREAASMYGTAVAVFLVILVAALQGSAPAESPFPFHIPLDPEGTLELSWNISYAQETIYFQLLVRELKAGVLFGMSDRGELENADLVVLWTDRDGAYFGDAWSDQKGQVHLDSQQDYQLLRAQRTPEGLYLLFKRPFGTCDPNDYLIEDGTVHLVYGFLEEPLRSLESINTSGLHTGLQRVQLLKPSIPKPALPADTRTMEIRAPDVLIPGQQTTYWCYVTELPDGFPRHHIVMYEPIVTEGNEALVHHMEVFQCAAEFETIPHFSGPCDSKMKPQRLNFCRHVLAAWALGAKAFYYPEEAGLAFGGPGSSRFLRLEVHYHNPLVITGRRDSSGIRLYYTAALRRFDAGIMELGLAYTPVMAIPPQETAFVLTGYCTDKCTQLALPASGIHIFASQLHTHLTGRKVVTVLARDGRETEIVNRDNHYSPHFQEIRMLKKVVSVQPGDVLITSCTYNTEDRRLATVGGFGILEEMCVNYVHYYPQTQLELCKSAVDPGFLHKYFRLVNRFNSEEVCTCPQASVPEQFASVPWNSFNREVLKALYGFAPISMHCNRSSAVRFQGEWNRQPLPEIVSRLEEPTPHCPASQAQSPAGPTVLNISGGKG
# [2] = target: T2, Dopamine beta-hydroxylase (Bos taurus) (UniProt P15101); experiment: Compound was evaluated for the inhibition of Dopamine beta hydroxylase at a concentration of 10e-4 M.
# T2 sequence (whole entry): T1 sequence (P15101 whole entry)
# [3] = target: T2, Dopamine beta-hydroxylase (Bos taurus); experiment: Inhibition of Dopamine beta hydroxylase at a concentration of 10e-4 M.
# [4] = target: T1, Dopamine beta-hydroxylase; experiment: Compound was evaluated for the inhibition of Dopamine beta hydroxylase at pH 4.5
# [5] = target: T1, Dopamine beta-hydroxylase; experiment: Compound was evaluated for the inhibition of Dopamine beta hydroxylase at pH 6.6
Structure (SMILES),IC50 [1],other results
COc1ccc(CCn2ccnc2S)cc1,68 µM,–
Oc1ccc(CCCCCn2ccnc2S)cc1,–,inhibition [2]: 30%
Oc1ccc(CCn2cc[nH]c2=S)cc1,23 µM,–
Oc1ccc(CCCn2cc[nH]c2=S)cc1,2.2 µM,–
CC(CCn1cc[nH]c1=S)c1ccccc1 (configuration not stated),18 µM,–
Oc1ccc(Cn2cc[nH]c2=S)cc1,2.6 µM,–
O=S(=O)(CCn1ccnc1S)c1ccccc1,–,inhibition [3]: 5%
Sc1nccn1-c1ccccc1,110 µM,–
COc1ccc(CCCCCn2cc[nH]c2=S)cc1,109 µM,–
CC(Cc1ccccc1)Cn1cc[nH]c1=S (configuration not stated),29 µM,–
S=c1[nH]ccn1Cc1ccccc1,32 µM,–
COc1ccc(-n2ccnc2S)cc1,–,inhibition [3]: 25%
NCC(c1ccccc1)n1ccnc1S (configuration not stated),–,inhibition [3]: 0%
OC(Cc1ccccc1)Cn1ccnc1S (configuration not stated),–,inhibition [3]: 5%
COc1ccc(CCCCn2cc[nH]c2=S)cc1,152 µM,–
Sc1nccn1CCCc1ccccc1,16 µM,–
S=c1[nH]ccn1CCOc1ccccc1,87 µM,–
COc1ccc(Cn2cc[nH]c2=S)cc1,202 µM,–
S=c1[nH]ccn1CCSc1ccccc1,103 µM,–
Oc1ccc(CCCCn2ccnc2S)cc1,–,inhibition [3]: 12%
CC(CCc1ccccc1)n1ccnc1S (configuration not stated),325 µM,–
Cn1cc[nH]c1=S [METHIMAZOLE],754 µM,Ki [4]: 45 µM; Ki [5]: 716 µM
COc1ccc(CCCn2cc[nH]c2=S)cc1,180 µM,–
Oc1ccc(-n2ccnc2S)cc1,370 µM,–
NC(=O)C(c1ccccc1)n1ccnc1S (configuration not stated),–,inhibition [3]: 4%
